Patent publication US7183267B2, “β-lactamase inhibitors and methods of use thereof” (priority 2003, dated 2007)
Converted amounts (≈) assume the structure as drawn.

Experiments:
Type in all cases: cell-based
[1] = tested on: methicillin resistant S. aureus from Stanford University Hospital (MRSA-SU); experiment: MIC assay, broth microdilution, MRSA-SU; conditions: Staphylococcus aureus, MRSA, 24 h
Outline: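 MRSA clinical isolate from Stanford University Hospital, tested in duplicate by NCCLS (2000) broth microdilution in Mueller-Hinton broth at 5×10^5 CFU/ml. Compounds were tested as two-fold dilutions at 512–4 μg/ml, with DMSO stocks, and incubated ≥24 h at 35 °C. MIC was the lowest dose with no visible growth.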

[2] = tested on: methicillin resistant S. aureus from Stanford University Hospital (MRSA-SU); experiment: Matrix system: oxacillin plus β-lactamase inhibitor, MRSA-SU
Procedure: To each well of a 96 well microtiter plate was added 47.5 μl of MHB. A volume of 2.5 μl of each dilution of oxacillin was then transferred to appropriate wells containing the medium. All wells, except the sterility control wells, were then inoculated with 50 μl of a diluted cell suspension to give a final volume of 100 μl and a final cell density of 5×10^4 CFU/well. The volume in the sterility control wells was adjusted to 100 μl with MHB. A sterile pipette tip was used to mix the contents of each well (one tip was used going from the low to the high concentration in the same column). The microtiter plates were covered with the lids and were placed in large Stratagene Big Blue plates (Cat. # 400041). Four large kimwipes moistened with tap water were placed near the edges of the Stratagene plates to prevent evaporation of the medium. The microtiter plates were incubated for at least 24 hours at 35° C. The plates were then evaluated for growth in each well. Controls included: medium sterility and negative control (medium and bacteria only).
A numerical code was used to evaluate the extent of growth as indicated below. • 0: absence of growth • 1: barely visible (faint) growth • 2: fair growth but less than the negative solvent control • 3: growth is equivalent to the negative solvent control.
The lowest dose at which no visible growth is observed was determined to be the MIC value.
The effect of the four compounds of the present invention on oxacillin resistance of the MRSA strains was determined using a matrix system. The β-lactamase inhibitors were tested at 5 doses against up to eleven concentrations of oxacillin. […] A 96-well microtiter plate was used for the matrix system. The procedure was identical to that described above for the MIC determination, with the exception that both oxacillin and one each of the β-lactamase inhibitors was added, 2.5 μl each, to the wells prior to addition of the test organisms.
Matrix Study:Oxacillin and Compound FL201 with MRSA-SU
Matrix Study: Oxacillin and Compound FL202 with MRSA-SU

[3] = tested on: methicillin sensitive S. aureus ATCC 25923 (MSSA); experiment: MIC assay, broth microdilution, MSSA; conditions: Staphylococcus aureus, 24 h
Outline: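 Broth microdilution in Mueller-Hinton broth, duplicate, 5×10^5 CFU/ml inoculum; compounds tested at 512 to 4 μg/ml (eight twofold doses, DMSO dilutions). Incubated ≥24 h at 35 °C; growth scored visually 0–3, MIC taken as lowest dose without visible growth.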

`COC(=O)c1cc(B(O)O)cc([N+](=O)[O-])c1` [Compound F1202] was tested, and the MIC [1] was 256 µg/mL, the “MIC (oxacillin)” value ([2]; Table 18, in presence of F1202 16 μg/ml) was 64 µg/mL and the “MIC (oxacillin)” value ([2]; Table 18, in presence of F1202 32 μg/ml) was 4 µg/mL. For the same molecule, the “MIC (oxacillin)” value ([2]; Table 18, in presence of F1202 64 μg/ml) was 1 µg/mL, the “MIC (oxacillin)” value ([2]; Table 18, in presence of F1202 128 μg/ml) was 0.25 µg/mL and the growth score ([2]; Table 18, oxacillin 0, F1202 16 μg/ml) was 3. It also gave a growth score ([2]; Table 18, oxacillin 0, F1202 32 μg/ml) of 3, a growth score ([2]; Table 18, oxacillin 0, F1202 64 μg/ml) of 3 and a growth score ([2]; Table 18, oxacillin 0, F1202 128 μg/ml) of 1. The growth score ([2]; Table 18, oxacillin 0, F1202 256 μg/ml) was 0, the growth score ([2]; Table 18, oxacillin 0.064 μg/ml + F1202 16 μg/ml) was 1 and the growth score ([2]; Table 18, oxacillin 0.064 μg/ml + F1202 32 μg/ml) was 1. For the same molecule, the growth score ([2]; Table 18, oxacillin 0.064 μg/ml + F1202 64 μg/ml) was 1, the growth score ([2]; Table 18, oxacillin 0.064 μg/ml + F1202 128 μg/ml) was 1 and the growth score ([2]; Table 18, oxacillin 0.064 μg/ml + F1202 256 μg/ml) was 0. For the same molecule, the growth score ([2]; Table 18, oxacillin 0.125 μg/ml + F1202 16 μg/ml) was 1, the growth score ([2]; Table 18, oxacillin 0.125 μg/ml + F1202 32 μg/ml) was 1 and the growth score ([2]; Table 18, oxacillin 0.125 μg/ml + F1202 64 μg/ml) was 1. For the same molecule, the growth score ([2]; Table 18, oxacillin 0.125 μg/ml + F1202 128 μg/ml) was 1, the growth score ([2]; Table 18, oxacillin 0.125 μg/ml + F1202 256 μg/ml) was 0 and the growth score ([2]; Table 18, oxacillin 0.25 μg/ml + F1202 16 μg/ml) was 1. The growth score ([2]; Table 18, oxacillin 0.25 μg/ml + F1202 32 μg/ml) was 1, the growth score ([2]; Table 18, oxacillin 0.25 μg/ml + F1202 64 μg/ml) was 1 and the growth score ([2]; Table 18, oxacillin 0.25 μg/ml + F1202 128 μg/ml) was 0. For the same molecule, the growth score ([2]; Table 18, oxacillin 0.25 μg/ml + F1202 256 μg/ml) was 0, the growth score ([2]; Table 18, oxacillin 0.5 μg/ml + F1202 16 μg/ml) was 1 and the growth score ([2]; Table 18, oxacillin 0.5 μg/ml + F1202 32 μg/ml) was 1. For the same molecule, the growth score ([2]; Table 18, oxacillin 0.5 μg/ml + F1202 64 μg/ml) was 1, the growth score ([2]; Table 18, oxacillin 0.5 μg/ml + F1202 128 μg/ml) was 0 and the growth score ([2]; Table 18, oxacillin 0.5 μg/ml + F1202 256 μg/ml) was 0. It also gave a growth score ([2]; Table 18, oxacillin 1 μg/ml + F1202 16 μg/ml) of 1, a growth score ([2]; Table 18, oxacillin 1 μg/ml + F1202 32 μg/ml) of 1 and a growth score ([2]; Table 18, oxacillin 1 μg/ml + F1202 64 μg/ml) of 0. It also gave a growth score ([2]; Table 18, oxacillin 1 μg/ml + F1202 128 μg/ml) of 0, a growth score ([2]; Table 18, oxacillin 1 μg/ml + F1202 256 μg/ml) of 0 and a growth score ([2]; Table 18, oxacillin 2 μg/ml + F1202 16 μg/ml) of 1. It also gave a growth score ([2]; Table 18, oxacillin 2 μg/ml + F1202 32 μg/ml) of 1, a growth score ([2]; Table 18, oxacillin 2 μg/ml + F1202 64 μg/ml) of 0 and a growth score ([2]; Table 18, oxacillin 2 μg/ml + F1202 128 μg/ml) of 0. For the same molecule, the growth score ([2]; Table 18, oxacillin 2 μg/ml + F1202 256 μg/ml) was 0, the growth score ([2]; Table 18, oxacillin 4 μg/ml + F1202 16 μg/ml) was 1 and the growth score ([2]; Table 18, oxacillin 4 μg/ml + F1202 32 μg/ml) was 0. The growth score ([2]; Table 18, oxacillin 4 μg/ml + F1202 64 μg/ml) was 0, the growth score ([2]; Table 18, oxacillin 4 μg/ml + F1202 128 μg/ml) was 0 and the growth score ([2]; Table 18, oxacillin 4 μg/ml + F1202 256 μg/ml) was 0. The growth score ([2]; Table 18, oxacillin 16 μg/ml + F1202 16 μg/ml) was 1, the growth score ([2]; Table 18, oxacillin 16 μg/ml + F1202 32 μg/ml) was 0 and the growth score ([2]; Table 18, oxacillin 16 μg/ml + F1202 64 μg/ml) was 0. For the same molecule, the growth score ([2]; Table 18, oxacillin 16 μg/ml + F1202 128 μg/ml) was 0, the growth score ([2]; Table 18, oxacillin 16 μg/ml + F1202 256 μg/ml) was 0 and the growth score ([2]; Table 18, oxacillin 64 μg/ml + F1202 16 μg/ml) was 0. The growth score ([2]; Table 18, oxacillin 64 μg/ml + F1202 32 μg/ml) was 0, the growth score ([2]; Table 18, oxacillin 64 μg/ml + F1202 64 μg/ml) was 0 and the growth score ([2]; Table 18, oxacillin 64 μg/ml + F1202 128 μg/ml) was 0. It also gave a growth score ([2]; Table 18, oxacillin 64 μg/ml + F1202 256 μg/ml) of 0, a growth score ([2]; Table 18, oxacillin 128 μg/ml + F1202 16 μg/ml) of 0 and a growth score ([2]; Table 18, oxacillin 128 μg/ml + F1202 32 μg/ml) of 0. For the same molecule, the growth score ([2]; Table 18, oxacillin 128 μg/ml + F1202 64 μg/ml) was 0, the growth score ([2]; Table 18, oxacillin 128 μg/ml + F1202 128 μg/ml) was 0 and the growth score ([2]; Table 18, oxacillin 128 μg/ml + F1202 256 μg/ml) was 0. For the same molecule, the growth score ([2]; Table 18, oxacillin 256 μg/ml + F1202 16 μg/ml) was 0, the growth score ([2]; Table 18, oxacillin 256 μg/ml + F1202 32 μg/ml) was 0 and the growth score ([2]; Table 18, oxacillin 256 μg/ml + F1202 64 μg/ml) was 0. For the same molecule, the growth score ([2]; Table 18, oxacillin 256 μg/ml + F1202 128 μg/ml) was 0, the growth score ([2]; Table 18, oxacillin 256 μg/ml + F1202 256 μg/ml) was 0 and the MIC [3] was 128 µg/mL (≈ 569 µM).
